From patent US5488049A, “Method of treating learning and memory disorders using benzothiadiazide derivatives as nootropic agents” (FIDIA - Georgetown Institute for the Neuro-Sciences, priority 1993, dated 1996) come the findings set out here.

“Also recorded” adds a separate entry of the source.

Data set [1] relates to rats. As to the kind of experiment: Water maze: drug action on alprazolam-disrupted learning behavior in rats. Type of data set: in vivo, rat. As to conditions: oral 5 mg/kg.
The next data set is described as follows: Gross animal behavior. As to conditions: at effective doses.
In data set [2] the test system is rats. The data set can be described thus: Water maze: drug action on alprazolam-disrupted learning behavior in rats. Type of data set: in vivo, rat. Here is the method:
Rats (male 250 g b.w.) were trained two days, once a day, in maze A (See insert A). […] Rats were exposed to a new maze configuration (Maze B) in 4 successive trials 15, 30, 45, and 60 min after the i.p. injections.
The water maze apparatus was adapted from Kant et al., (16), and consists of three concentric squares placed inside a 5 ft plastic pool (FIG. 6). The walls of the maze are 50 cm in height and are constructed from black opaque plastic to allow for tracking of the animal with an overhead camera. The alleys between the walls are 16 cm wide. In the center of each wall there is a removable doorway. The opening of doorways allows for the construction of mazes with an increasing number of potential error possibilities. (See diagram for Maze A and Maze B, FIG. 6). The maze is located in a room 10'×15' at constant temperature (18° C.) adjacent to the vivarium. The room is illuminated with overhead lights which also serve as spatial cues. Additional spatial cues are provided by the position of the investigator and a number of small white x's placed within specific locations upon the walls of the maze. The maze is filled with water (18°)C. to a depth of 25 cm.
Seven days prior to drug studies, rats were tested in Maze A (forced maze) on two consecutive days. Pretesting with the "forced" maze enabled the assessment of the animals' general motor, sensory and motivational abilities, and facilitated the exclusion of those animals unable to meet pretesting criteria. Performance was assessed by determining either swim time, errors committed, or path length measured with a computerized recording device. Errors are defined as whole body entry into alleys not leading directly to the exit platform (i.e., shaded portions in FIG. 6). Rats were excluded from the study if their swim path length and/or number of errors were two standard deviations above the mean […] of the entire group. During the first two trials, the rats were placed into the center of the maze and given a maximum of 180 secs to find the "exit platform" located at the "finish" (FIG. 6). The time required, the number of errors, and the path length were recorded for each trial. […] Rats meeting the criteria were randomly divided into groups. On the day of the experiment, a single trial was run (Maze A) in order to establish a baseline of performance. Following drug administration, the rats were again tested once on Maze A to establish a baseline of post-treatment performance. Following an additional interatrial interval of 30 min., the rats were tested on Maze B.
In these experiments, rats were trained in Maze B 15, 30, 45 and 60 min. after drug injection.

A short description of data set [3]: Entry into the brain (inferred from in vivo activity). To be noted: inferred ("presumably") from in vivo activity or lack of it.
The subject of a further data set is Pacata monkeys. The data set can be described thus: Preliminary experiments in Pacata monkeys: working memory. Format: in vivo. The source says:
The present IDRAcompounds are useful for enhancing both short-term memory, long-term memory, and cognitive performance in man. […]. As a result, the compounds of the present invention are useful as therapeutic agents in memory impairment, e.g., due to toxicant exposure, brain injury, epilepsy, mental retardation in children and senile dementia, including Alzheimer's disease.

Another data set deals with GABAA receptors. The data set can be described thus: Preliminary electrophysiological and biochemical radiolabeled binding studies on GABAA receptors.
In a further data set the test system is AMPA receptor. The data set can be described thus: Fast application with double barrel pipette: AMPA receptor desensitization in outside-out patches from CAl hippocampal pyramidal neurons. Format: cell-based, rat. As to conditions: comparison compound, lower dose than IDRA 21, concentration not given. On the procedure: (§1) Young rats (12-16 days old) were decapitated and the brains quickly removed and placed in ice-cold Ringer solution. Thin slices of hippocampus (250 μm) were then cut with a vibratome slicer (Lancer, St. Louis, Mo.) and kept in Ringer solution at 37° C. until use. The experiments were carried out at room temperature with the slice totally submerged in a 1 ml volume recording chamber and under continuous perfusion with Ringer solution at a rate of 6 ml/min using an upright Hoffman modulation contrast microscope (Carl Zeiss, Germany) equipped with a 40×water immersion objective.
(§2) Media and drug application. The external Ringer solution contained (in mM): NaCl 120; KCl 3.1; CaCl2 2; MgCl2 1; KH2 PO4 1; NaHCO3 26; glucose 2.7; and it was continuously bubbled with 95% O2 and 5% CO2. Patch pipettes were filled with a solution containing (in mM): K-gluconate 140; MgCl2 1; ATP.Mg 2; EGTA 0.5; HEPES-KOH 10, pH 7.2. All the drugs under investigation were applied through the recording chamber perfusion system via parallel inputs having a common entry into the chamber. Agonist application was attained using two different systems that allowed a slow or a rapid solution change. Slow solution changes were used during recordings in whole-cell configuration and were obtained by exchanging the solution of the recording chamber within a few seconds. Fast solution changes were obtained with the use of the Y-shaped tubing method that allows complete exchange of solution in less than 10 ms, and is described in detail by Murase et al. (1989).
Briefly, a polyethylene tubing (1 mm i.d.) is bent in a U-shaped, and another fine polyethylene tubing (50 μi.d.) and 10 mm length) is inserted into a small hole in the U-tubing making the tip of the Y-tubing. Solutions are fed to the Y-tubing by gravity, and negative pressure facilitates exchange of the solution. The tip of the Y-tubing is positioned 100 μm from the cell investigated, and upon opening and closing of a valve that controls the negative pressure, it was possible to respectively change rapidly and apply a number of different test solutions. This method was used to apply agonists to excised outside-out membrane patches. More rapid drug applications were used to apply agonists to excised outside-out membrane patches, and were obtained through a double-barrelled pipette positioned close to the recording pipette containing the membrane patch. […] The agonist was applied for a period of 150 ms and the time necessary for a complete exchange of the solution was less than 1 ms as measured at the opening of a patch pipette containing different dilutions of the drugs under study. […]
Ionic currents in whole-cell configuration and outside-out excised membrane patches were monitored using the patch clamp technique (15). […]

The subject of data set [4] is EPSCs elicited in CAl pyramidal neurons. The data set can be described thus: Excitatory postsynaptic currents (EPSCs) in CAl pyramidal neurons in hippocampal slices on stimulation of Schaffer collateral afferents. Format: cell-based, rat. As to conditions: in vitro; compared with (+) IDRA 21. Here is the method: as §1
(§3) Ionic currents in whole-cell configuration and outside-out excised membrane patches were monitored using the patch clamp technique (15).
Traces were filtered at 3 KHz (-3 dB, 8-pole, lowpass Bessel filter, Frequency Devices), and stored in an LSI 11/73 computer (INDEC System, Sunnyvale, Calif.) after digitization (10 KHz) with a Data Translation analog to digital converter. Decay time constants of EPSC and glutamate-activated currents were determined from exponential fitting with the 11/73 system by using an entirely automated least-squares procedures (see Vicini and Schuetze, 1985, for further details). This method uses a Simplex algorithm (Caceci and Cacheris, 1984) to fit the data to either a single or double exponential equation of the form I(t)=If exp(-t/tauf)+Is exp(-t/taus), where If and Is are the amplitudes of the sIPSC fast and slow components, and tauf and taus are their respective decay time constants. Peak amplitudes were measured at the absolute maximum of the currents, taking into account the noise of the baseline and noise around the peak. Rise times were measured as the time elapsed from 20 to 80% of the peak amplitude of the response.
The action of nootropic drugs on the excitatory postsynaptic currents (EPSCs) elicited in CAl pyramidal neurons in hippocampal slices was investigated by stimulation of the Schaffer collateral afferents.

Data set [5] deals with kainate-activated current. As to the kind of experiment: Selectivity: ionic current elicited by 20 μM kainate. Type of data set: cell-based, rat. Here is the method:
as §1, §2, §3

Consider `CC1Nc2ccc(Cl)cc2S(=O)(=O)N1` (single isomer, unassigned; (+)) [(+) IDRA 21], for which, in the data set on rats [1], the “potency vs racemate in preventing alprazolam-induced amnesia” value is recorded as “significantly more potent than (±) IDRA; also recorded: more potent that (±) IDRA 21” and the “prevention of alprazolam-induced amnesia (enantiomers)” value is “active in preventing alprazolam-induced amnesia in rats”. Further, the “effect on gross animal behavior (exploratory behavior, stereotypy, ataxia, posture)” value in the data set “Gross animal behavior” is listed as “no changes in exploratory behavior, stereotypy, ataxia, posture, etc”. Besides, the “disruptive action of alprazolam” value in the data set on rats [2] (discussion statement) is given as “antagonizes the disruptive action of alprazolam”. In addition, in the data set with rats [2] (rat, in vivo), the “dose dependence of learning and memory enhancing effect” value is recorded as “dose-dependent”; the “duration of learning and memory enhancing effect” value was more than 1 h. For the same compound, in the data set on rats [2] (summary statement), the “biological activity of enantiomers (summary)” value was “biologically active”. Besides, the brain uptake result in [3] was “taken up by the brain in a sufficient quantity to produce learning and memory enhancing effects”. Also, the working memory enhancement entry with Pacata monkeys is “very potent in enhancing working memory”. Besides, the “direct action on GABAA receptors” value in the data set on GABAA receptors is listed as “fails to act directly on GABAA receptors”.

For `NS(=O)(=O)c1cc2c(cc1Cl)NC(C1CC3C=CC1C3)NS2(=O)=O` (stereo not shown) [cyclothiazide, reference compound], the “removal of glutamate-induced desensitization” value in the data set with AMPA receptor was “completely removed the desensitization induced by glutamate”. Also, the “efficacy in increasing excitatory synaptic strength in CAl pyramidal neurons” value in data set [4] was “at least as efficacious as (+) IDRA 21”. In the data set on rats [2] (doses equimolar to IDRA 21 / (+) IDRA 21), the “antagonism of alprazolam amnesic effect” value is listed as “unable to antagonize alprazolam-induced impairment of learning behavior”. Moreover, the brain uptake result in data set [3] is listed as “fail to enter the brain”. Moreover, the “effect on kainate-activated current” value in [5] (40 μM compound, 20 μM kainate) is “increased the current”. Also, the “effect on kainate responses at doses that decreased AMPA desensitization” value in data set [5] (all doses that decrease/inhibit AMPA desensitization) is listed as “potently potentiated kainate responses”.
